pIC50: −log10 of the molar value.
Key:
[1] = Cytotoxicity against human SH-SY5Y cells assessed as cell viability at 30 uM after 24 hrs by MTT assay relative to control; assay type: cell-based; settings: read-out: Activity
SH-SY5Y [2] = experiment: cells; settings: Homo sapiens, 24 h
SH-SY5Y [3] = experiment: Neuroprotective activity against glutamate-induced neurotoxicity in human SH-SY5Y cells assessed as cell viability at 10 uM incubated for 30 mins prior to glutamate challenge measured after 24 hrs by MTT assay (reference value: 73.8 +/- 4.5%); assay type: functional; settings: read-out: Activity
SH-SY5Y [4] = experiment: Neuroprotective activity against glutamate-induced neurotoxicity in human SH-SY5Y cells assessed as cell viability at 50 uM incubated for 30 mins prior to glutamate challenge measured after 24 hrs by MTT assay (reference value: 73.8 +/- 4.5%); assay type: functional; settings: read-out: Activity
[5] = molecular target: Cyclin-dependent kinase 9 (Homo sapiens) (UniProt P50750); experiment: Inhibition of CDK9 (unknown origin) at 0.5 uM relative to control
[6] = molecular target: Glycogen synthase kinase-3 beta (Homo sapiens) (UniProt P49841); experiment: Inhibition of GSK3beta (unknown origin) at 0.5 uM relative to control
[7] = molecular target: T1, Inhibitor of nuclear factor kappa-B kinase subunit beta (Homo sapiens) (UniProt O14920); experiment: Inhibition of IKKbeta (unknown origin) at 0.5 uM relative to control
T1 sequence (whole entry): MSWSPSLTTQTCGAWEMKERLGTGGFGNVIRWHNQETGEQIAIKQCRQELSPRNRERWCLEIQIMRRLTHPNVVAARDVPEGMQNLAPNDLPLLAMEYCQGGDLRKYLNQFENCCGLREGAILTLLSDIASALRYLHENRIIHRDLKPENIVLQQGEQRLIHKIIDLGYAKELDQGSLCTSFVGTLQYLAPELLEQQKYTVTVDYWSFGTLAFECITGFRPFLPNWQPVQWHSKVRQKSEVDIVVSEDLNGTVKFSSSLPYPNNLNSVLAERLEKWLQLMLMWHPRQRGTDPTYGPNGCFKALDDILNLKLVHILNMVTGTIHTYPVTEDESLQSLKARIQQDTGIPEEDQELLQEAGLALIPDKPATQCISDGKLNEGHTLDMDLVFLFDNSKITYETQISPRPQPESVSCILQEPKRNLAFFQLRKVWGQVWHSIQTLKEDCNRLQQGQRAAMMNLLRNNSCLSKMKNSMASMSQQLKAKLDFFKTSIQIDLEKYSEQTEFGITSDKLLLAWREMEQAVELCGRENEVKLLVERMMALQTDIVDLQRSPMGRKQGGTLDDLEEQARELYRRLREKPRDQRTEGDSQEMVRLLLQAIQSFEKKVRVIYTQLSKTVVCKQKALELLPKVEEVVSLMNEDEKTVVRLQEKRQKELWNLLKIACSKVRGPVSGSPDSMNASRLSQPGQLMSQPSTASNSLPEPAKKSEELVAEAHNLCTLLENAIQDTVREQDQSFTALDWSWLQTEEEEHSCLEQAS

[8] = molecular target: T2, Aurora kinase A (Homo sapiens) (UniProt O14965); experiment: Inhibition of Aurora A (unknown origin) at 0.5 uM relative to control
T2 sequence (whole entry): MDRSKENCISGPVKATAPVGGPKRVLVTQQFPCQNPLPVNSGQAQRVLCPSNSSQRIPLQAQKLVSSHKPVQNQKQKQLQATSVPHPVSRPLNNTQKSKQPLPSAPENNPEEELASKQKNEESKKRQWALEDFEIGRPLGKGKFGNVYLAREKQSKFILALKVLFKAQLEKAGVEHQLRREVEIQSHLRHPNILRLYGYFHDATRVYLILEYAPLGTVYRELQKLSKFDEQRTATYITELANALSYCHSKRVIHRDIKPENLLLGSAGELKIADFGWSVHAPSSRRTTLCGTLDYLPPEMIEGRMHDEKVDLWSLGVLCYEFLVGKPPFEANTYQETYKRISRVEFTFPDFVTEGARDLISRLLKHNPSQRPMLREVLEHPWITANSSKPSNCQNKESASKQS

[9] = molecular target: Cyclin-dependent kinase 2 (Homo sapiens) (UniProt P24941); experiment: Inhibition of CDK2 (unknown origin) at 0.5 uM relative to control
[10] = molecular target: Insulin receptor (Homo sapiens) (UniProt P06213); experiment: Inhibition of IR (unknown origin) at 0.5 uM relative to control
[11] = molecular target: Tyrosine-protein kinase ABL1 (Homo sapiens) (UniProt P00519); experiment: Inhibition of Abl (unknown origin) at 0.5 uM relative to control
[12] = molecular target: Casein kinase I isoform alpha (Homo sapiens) (UniProt P48729); experiment: Inhibition of CK1 (unknown origin) at 0.5 uM relative to control
[13] = molecular target: RAC-beta serine/threonine-protein kinase (Homo sapiens) (UniProt P31751); experiment: Inhibition of PKBbeta (unknown origin) at 0.5 uM relative to control
[14] = molecular target: AMP-activated protein kinase, AMPK (Homo sapiens) (UniProt P54646+O43741+P54619+Q9UGJ0+Q9Y478+Q13131+Q9UGI9); experiment: Inhibition of AMPK (unknown origin) at 0.5 uM relative to control; assay type: protein-complex assay
[15] = molecular target: Aurora kinase B (Homo sapiens) (UniProt Q96GD4); experiment: Inhibition of Aurora B (unknown origin) at 0.5 uM relative to control
[16] = molecular target: Protein kinase C alpha type (Homo sapiens) (UniProt P17252); experiment: Inhibition of PKCalpha (unknown origin) at 0.5 uM relative to control
[17] = molecular target: RAC-alpha serine/threonine-protein kinase (Homo sapiens) (UniProt P31749); experiment: Inhibition of PKBalpha (unknown origin) at 0.5 uM relative to control
[18] = molecular target: Insulin-like growth factor 1 receptor (Homo sapiens) (UniProt P08069); experiment: Inhibition of IGF-1R (unknown origin) at 0.5 uM relative to control
[19] = molecular target: Vascular endothelial growth factor receptor 1 (Homo sapiens) (UniProt P17948); experiment: Inhibition of VEGFR1 (unknown origin) at 0.5 uM relative to control

Chain of RAC-beta serine/threonine-protein kinase (Homo sapiens) (P31751 whole entry): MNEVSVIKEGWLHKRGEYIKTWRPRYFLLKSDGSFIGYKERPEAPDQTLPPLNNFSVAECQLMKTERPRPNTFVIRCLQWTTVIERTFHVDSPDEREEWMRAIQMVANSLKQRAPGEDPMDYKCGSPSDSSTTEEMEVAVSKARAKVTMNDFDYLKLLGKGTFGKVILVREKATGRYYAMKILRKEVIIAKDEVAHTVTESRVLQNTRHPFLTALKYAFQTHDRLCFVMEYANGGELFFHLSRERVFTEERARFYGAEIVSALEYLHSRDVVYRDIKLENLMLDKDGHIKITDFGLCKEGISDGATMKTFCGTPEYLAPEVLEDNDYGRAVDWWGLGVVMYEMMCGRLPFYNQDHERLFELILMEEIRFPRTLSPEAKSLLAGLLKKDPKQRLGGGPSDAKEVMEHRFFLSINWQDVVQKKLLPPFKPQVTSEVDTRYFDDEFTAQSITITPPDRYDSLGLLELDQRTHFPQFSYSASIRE
Chain of Insulin-like growth factor 1 receptor (Homo sapiens) (P08069 31-736 limits assumed): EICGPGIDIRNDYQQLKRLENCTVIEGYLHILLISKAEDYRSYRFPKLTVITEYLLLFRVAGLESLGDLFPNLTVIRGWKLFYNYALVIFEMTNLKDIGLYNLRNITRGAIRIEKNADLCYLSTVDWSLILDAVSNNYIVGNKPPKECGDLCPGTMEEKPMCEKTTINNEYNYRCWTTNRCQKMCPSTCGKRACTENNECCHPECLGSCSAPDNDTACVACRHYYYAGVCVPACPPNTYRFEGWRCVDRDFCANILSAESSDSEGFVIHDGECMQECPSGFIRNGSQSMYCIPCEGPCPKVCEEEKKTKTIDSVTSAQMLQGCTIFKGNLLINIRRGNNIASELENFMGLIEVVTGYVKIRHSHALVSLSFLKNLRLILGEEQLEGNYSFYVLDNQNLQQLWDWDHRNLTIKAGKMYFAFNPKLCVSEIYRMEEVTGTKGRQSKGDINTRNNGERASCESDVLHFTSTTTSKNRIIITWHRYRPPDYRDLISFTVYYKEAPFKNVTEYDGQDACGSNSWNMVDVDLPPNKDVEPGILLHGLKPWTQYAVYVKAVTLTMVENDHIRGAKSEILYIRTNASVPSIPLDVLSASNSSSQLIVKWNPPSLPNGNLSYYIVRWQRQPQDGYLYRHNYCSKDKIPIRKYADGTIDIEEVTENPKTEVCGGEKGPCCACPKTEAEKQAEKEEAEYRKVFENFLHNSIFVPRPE
Chain of Insulin-like growth factor 1 receptor (Homo sapiens) (P08069 741-1367 limits assumed): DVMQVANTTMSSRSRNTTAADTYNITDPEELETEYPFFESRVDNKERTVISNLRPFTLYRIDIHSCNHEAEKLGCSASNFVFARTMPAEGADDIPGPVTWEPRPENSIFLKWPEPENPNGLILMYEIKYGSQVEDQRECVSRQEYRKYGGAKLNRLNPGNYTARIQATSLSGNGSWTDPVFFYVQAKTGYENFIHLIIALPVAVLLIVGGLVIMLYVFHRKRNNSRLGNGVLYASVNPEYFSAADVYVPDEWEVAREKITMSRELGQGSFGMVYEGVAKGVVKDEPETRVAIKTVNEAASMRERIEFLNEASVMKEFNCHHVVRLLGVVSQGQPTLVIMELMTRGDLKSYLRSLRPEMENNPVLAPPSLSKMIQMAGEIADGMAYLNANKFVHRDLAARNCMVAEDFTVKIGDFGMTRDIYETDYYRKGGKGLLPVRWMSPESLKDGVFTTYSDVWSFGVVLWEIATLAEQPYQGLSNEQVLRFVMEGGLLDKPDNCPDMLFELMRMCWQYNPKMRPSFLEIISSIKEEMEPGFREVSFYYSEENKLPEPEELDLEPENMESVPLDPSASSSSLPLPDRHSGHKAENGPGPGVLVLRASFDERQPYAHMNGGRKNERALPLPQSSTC
Chain of Insulin receptor (Homo sapiens) (P06213 28-758 limits assumed): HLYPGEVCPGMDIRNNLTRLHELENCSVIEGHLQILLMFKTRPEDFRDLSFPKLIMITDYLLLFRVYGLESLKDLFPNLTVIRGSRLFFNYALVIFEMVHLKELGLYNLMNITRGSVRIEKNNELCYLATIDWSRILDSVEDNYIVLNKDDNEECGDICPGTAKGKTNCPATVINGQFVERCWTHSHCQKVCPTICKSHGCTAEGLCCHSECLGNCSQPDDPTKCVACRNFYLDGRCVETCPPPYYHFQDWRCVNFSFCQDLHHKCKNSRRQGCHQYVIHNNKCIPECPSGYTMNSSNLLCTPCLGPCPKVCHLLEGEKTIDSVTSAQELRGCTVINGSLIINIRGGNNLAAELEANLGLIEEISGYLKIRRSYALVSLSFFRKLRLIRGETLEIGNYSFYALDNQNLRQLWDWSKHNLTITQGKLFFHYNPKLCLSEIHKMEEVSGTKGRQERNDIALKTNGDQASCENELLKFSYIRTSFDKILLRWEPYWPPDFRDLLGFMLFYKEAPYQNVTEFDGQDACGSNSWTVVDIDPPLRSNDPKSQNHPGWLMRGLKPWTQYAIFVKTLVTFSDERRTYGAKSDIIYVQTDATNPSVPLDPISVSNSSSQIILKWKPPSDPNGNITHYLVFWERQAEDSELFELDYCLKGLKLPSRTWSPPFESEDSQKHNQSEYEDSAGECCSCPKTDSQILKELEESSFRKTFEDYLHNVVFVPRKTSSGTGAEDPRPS
Chain of Insulin receptor (Homo sapiens) (P06213 763-1382 limits assumed): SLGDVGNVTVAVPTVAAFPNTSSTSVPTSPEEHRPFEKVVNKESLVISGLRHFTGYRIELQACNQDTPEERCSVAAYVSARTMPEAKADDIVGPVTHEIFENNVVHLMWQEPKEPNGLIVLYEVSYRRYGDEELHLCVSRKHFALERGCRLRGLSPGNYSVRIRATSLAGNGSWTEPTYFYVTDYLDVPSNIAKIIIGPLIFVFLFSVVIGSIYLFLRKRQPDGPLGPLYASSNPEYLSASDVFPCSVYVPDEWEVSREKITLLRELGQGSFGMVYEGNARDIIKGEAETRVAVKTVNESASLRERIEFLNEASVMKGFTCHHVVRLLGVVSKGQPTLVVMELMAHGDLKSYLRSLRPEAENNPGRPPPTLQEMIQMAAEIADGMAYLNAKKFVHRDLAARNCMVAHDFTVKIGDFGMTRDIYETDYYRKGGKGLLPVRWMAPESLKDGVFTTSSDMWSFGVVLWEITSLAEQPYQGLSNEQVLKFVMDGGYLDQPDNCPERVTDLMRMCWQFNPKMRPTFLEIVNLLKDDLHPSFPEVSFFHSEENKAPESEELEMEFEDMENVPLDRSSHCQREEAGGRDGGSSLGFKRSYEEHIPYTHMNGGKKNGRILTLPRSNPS
Chain of Cyclin-dependent kinase 9 (Homo sapiens) (P50750 whole entry): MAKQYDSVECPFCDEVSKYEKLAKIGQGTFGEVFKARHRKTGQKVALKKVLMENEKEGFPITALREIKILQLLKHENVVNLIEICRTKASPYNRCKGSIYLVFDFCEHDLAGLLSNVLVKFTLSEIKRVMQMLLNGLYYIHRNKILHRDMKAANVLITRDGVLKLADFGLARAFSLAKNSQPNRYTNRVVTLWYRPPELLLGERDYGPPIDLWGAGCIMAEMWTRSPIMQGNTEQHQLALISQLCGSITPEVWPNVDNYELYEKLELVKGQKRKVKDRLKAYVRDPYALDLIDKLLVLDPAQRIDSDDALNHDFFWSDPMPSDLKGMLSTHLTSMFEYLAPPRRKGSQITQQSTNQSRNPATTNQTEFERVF
Chain of Aurora kinase B (Homo sapiens) (Q96GD4 whole entry): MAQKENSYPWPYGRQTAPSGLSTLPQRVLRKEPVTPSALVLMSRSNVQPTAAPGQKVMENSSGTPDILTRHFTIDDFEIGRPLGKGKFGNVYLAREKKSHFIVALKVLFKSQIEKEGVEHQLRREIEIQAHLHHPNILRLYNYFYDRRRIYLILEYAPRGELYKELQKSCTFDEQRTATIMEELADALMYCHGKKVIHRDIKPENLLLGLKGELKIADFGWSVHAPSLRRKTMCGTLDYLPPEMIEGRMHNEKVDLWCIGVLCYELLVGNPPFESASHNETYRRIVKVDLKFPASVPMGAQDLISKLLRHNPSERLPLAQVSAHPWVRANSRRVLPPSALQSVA
Chain of Glycogen synthase kinase-3 beta (Homo sapiens) (P49841 whole entry, looked up): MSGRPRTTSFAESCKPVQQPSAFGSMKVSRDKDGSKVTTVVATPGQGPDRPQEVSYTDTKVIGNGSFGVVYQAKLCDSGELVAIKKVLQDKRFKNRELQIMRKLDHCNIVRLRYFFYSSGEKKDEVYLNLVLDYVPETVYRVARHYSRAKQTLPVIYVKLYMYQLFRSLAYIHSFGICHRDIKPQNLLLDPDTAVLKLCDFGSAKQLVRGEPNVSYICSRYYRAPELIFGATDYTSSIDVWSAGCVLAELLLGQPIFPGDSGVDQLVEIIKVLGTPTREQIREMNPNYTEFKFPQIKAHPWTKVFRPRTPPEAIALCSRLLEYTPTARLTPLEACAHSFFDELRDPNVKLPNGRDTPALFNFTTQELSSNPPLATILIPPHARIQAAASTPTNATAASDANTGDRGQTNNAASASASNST

## Nc1nccc(-c2cn(C(=O)N3CCOCC3)c3ccccc23)n1
[1]
  viability at 24 h, 30 µM: 97.3%

## Nc1nccc(-c2cn(S(=O)(=O)c3ccc(Cl)cc3Cl)c3ccccc23)n1
[1]
  viability at 24 h, 30 µM: 55.4%

## Nc1nccc(-c2cn(S(=O)(=O)c3ccc(C(F)(F)F)cc3[N+](=O)[O-])c3ccc(Br)cc23)n1
SH-SY5Y [2]
  pIC50: 4.85
[1]
  viability at 24 h, 30 µM: 15.2%

## Nc1nccc(-c2cn(S(=O)(=O)c3ccc4c(c3)OCCO4)c3ccc(Br)cc23)n1
[1]
  viability at 24 h, 30 µM: 112%

## CN1CCN(C(=O)n2cc(-c3ccnc(N)n3)c3cc(Br)ccc32)CC1
[1]
  viability at 24 h, 30 µM: 91.8%

## COc1ccc(S(=O)(=O)n2cc(-c3ccnc(N)n3)c3cc(Br)ccc32)cc1
[1]
  viability at 24 h, 30 µM: 99%

## COCCn1cc(-c2ccnc(N)n2)c2cc(Br)ccc21
[1]
  viability at 24 h, 30 µM: 75.3%

## COc1cccc(C(=O)n2cc(-c3ccnc(N)n3)c3ccccc32)c1
[1]
  viability at 24 h, 30 µM: 94.6%

## Nc1nccc(-c2cn(C(=O)c3ccccc3)c3ccccc23)n1
[1]
  viability at 24 h, 30 µM: 106%

## Nc1nccc(-c2cn(S(=O)(=O)c3ccc(I)cc3)c3ccccc23)n1
[1]
  viability at 24 h, 30 µM: 57.5%

## Nc1nccc(-c2cn(Cc3ccc(Cl)s3)c3ccc(Br)cc23)n1
[1]
  viability at 24 h, 30 µM: 24%

## Cc1cc(C)c(S(=O)(=O)n2cc(-c3ccnc(N)n3)c3cc(Br)ccc32)c(C)c1
[1]
  viability at 24 h, 30 µM: 109%

## CC(=O)Nc1ccc(S(=O)(=O)n2cc(-c3ccnc(N)n3)c3cc(Br)ccc32)cc1
[1]
  viability at 24 h, 30 µM: 71.6%

## Nc1nccc(-c2cn(S(=O)(=O)c3cccc(C(F)(F)F)c3)c3ccc(Br)cc23)n1
[1]
  viability at 24 h, 30 µM: 38.8%

## Nc1nccc(-c2cn(Cc3c4ccccc4cc4ccccc34)c3ccc(Br)cc23)n1
[1]
  viability at 24 h, 30 µM: 79.8%

## Nc1nccc(-c2cn(S(=O)(=O)c3ccc([N+](=O)[O-])cc3)c3ccccc23)n1
[1]
  viability at 24 h, 30 µM: 56%

## Cc1noc(C)c1Cn1cc(-c2ccnc(N)n2)c2cc(Br)ccc21
[1]
  viability at 24 h, 30 µM: 83.1%

## COc1ccc(S(=O)(=O)n2cc(-c3ccnc(N)n3)c3ccccc32)cc1
[1]
  viability at 24 h, 30 µM: 58.8%

## COc1ccc(Br)cc1S(=O)(=O)n1cc(-c2ccnc(N)n2)c2ccccc21
[1]
  viability at 24 h, 30 µM: 96.2%

## N#Cc1ccc(S(=O)(=O)n2cc(-c3ccnc(N)n3)c3ccccc32)cc1
[1]
  viability at 24 h, 30 µM: 110%

## Cc1cc(C)c(S(=O)(=O)n2cc(-c3ccnc(N)n3)c3ccccc32)c(C)c1
[1]
  viability at 24 h, 30 µM: 40%

## O=C1NC(c2c[nH]c3ccccc23)Nc2ccccc21 (stereo not given)
[1]
  viability at 24 h, 30 µM: 83.1%

## Nc1nccc(-c2cn(S(=O)(=O)c3cccc(C(F)(F)F)c3)c3ccccc23)n1
[1]
  viability at 24 h, 30 µM: 76.1%

## Nc1nccc(-c2cn(C(=O)c3ccccc3)c3ccc(Br)cc23)n1
SH-SY5Y [3]
  viability at 10 µM: 93.2%
SH-SY5Y [2]
  pIC50: < 4.00
SH-SY5Y [4]
  viability at 50 µM: 94.1%
[1]
  viability at 24 h, 30 µM: 65.1%

## Nc1nccc(-c2cn(S(=O)(=O)c3ccc4c(c3)OCCO4)c3ccccc23)n1
[1]
  viability at 24 h, 30 µM: 59.4%

## Nc1nccc(-c2cn(S(=O)(=O)c3cc(C(F)(F)F)cc(C(F)(F)F)c3)c3ccccc23)n1
[1]
  viability at 24 h, 30 µM: 72.4%

## Cc1c(C)c(C)c(S(=O)(=O)n2cc(-c3ccnc(N)n3)c3ccccc32)c(C)c1C
[1]
  viability at 24 h, 30 µM: 49%

## Nc1nccc(-c2cn(S(=O)(=O)c3ccc([N+](=O)[O-])cc3)c3ccc(Br)cc23)n1
[1]
  viability at 24 h, 30 µM: 59%

## Nc1nccc(-c2cn(S(=O)(=O)c3ccc(Br)cc3)c3ccccc23)n1
[1]
  viability at 24 h, 30 µM: 91.4%

## Nc1nccc(-c2cn(S(=O)(=O)c3cc(C(F)(F)F)cc(C(F)(F)F)c3)c3ccc(Br)cc23)n1
[1]
  viability at 24 h, 30 µM: 76.4%

## CC(C)(C)c1ccc(S(=O)(=O)n2cc(-c3ccnc(N)n3)c3ccccc32)cc1
[1]
  viability at 24 h, 30 µM: 86.3%

## Nc1nccc(-c2c[nH]c3ccc(Br)cc23)n1 [MERIDIANIN C]
[1]
  viability at 24 h, 30 µM: 92.9%

## CN1CCN(C(=O)n2cc(-c3ccnc(N)n3)c3ccccc32)CC1
[1]
  viability at 24 h, 30 µM: 82%

## Nc1nccc(-c2c[nH]c3ccccc23)n1
[5]
  inhibition: 3.8%
[6]
  inhibition: 0%
[7]
  inhibition: 16.6%
[8]
  inhibition: 5.1%
[9]
  inhibition: 0%
[10]
  inhibition: 9.6%
[11]
  inhibition: 7.1%
[12]
  inhibition: 0%
[13]
  inhibition: 0%
[14]
  inhibition: 0%
[15]
  inhibition: 4.1%
[16]
  inhibition: 8.5%
[17]
  inhibition: 22.3%
[18]
  inhibition: 0%
[19]
  inhibition: 8%
[1]
  viability at 24 h, 30 µM: 91.4%

## Nc1nccc(-c2cn(S(=O)(=O)c3ccc(C(F)(F)F)cc3)c3ccccc23)n1
[1]
  viability at 24 h, 30 µM: 95.6%

## Nc1nccc(-c2cn(S(=O)(=O)c3ccc(OC(F)(F)F)cc3)c3ccc(Br)cc23)n1
[1]
  viability at 24 h, 30 µM: 74%

## Nc1nccc(-c2cn(CN3C(=O)c4ccccc4C3=O)c3ccccc23)n1
[1]
  viability at 24 h, 30 µM: 101%

## Nc1nccc(-c2cn(S(=O)(=O)c3ccc(C(F)(F)F)cc3)c3ccc(Br)cc23)n1
[1]
  viability at 24 h, 30 µM: 85%

## O=c1[nH]c(-c2c[nH]c3ccc(I)cc23)nc2ccccc12
[1]
  viability at 24 h, 30 µM: 24%

## COc1ccc(S(=O)(=O)n2cc(-c3ccnc(N)n3)c3ccccc32)cc1OC
[1]
  viability at 24 h, 30 µM: 127%

## Nc1nccc(-c2cn(S(=O)(=O)c3ccc4ccccc4c3)c3ccccc23)n1
[1]
  viability at 24 h, 30 µM: 61.6%

## Cc1ccsc1C(=O)n1cc(-c2ccnc(N)n2)c2ccccc21
[1]
  viability at 24 h, 30 µM: 82%

## Cc1noc(C)c1Cn1cc(-c2ccnc(N)n2)c2ccccc21
[5]
  inhibition: 14%
[6]
  inhibition: 6.1%
[7]
  inhibition: 3%
[8]
  inhibition: 0%
[9]
  inhibition: 0%
[10]
  inhibition: 17.7%
[11]
  inhibition: 6.3%
[12]
  inhibition: 22.7%
[13]
  inhibition: 0%
[14]
  inhibition: 9.5%
[15]
  inhibition: 10.1%
[16]
  inhibition: 36.9%
[17]
  inhibition: 10.9%
[18]
  inhibition: 0%
[19]
  inhibition: 13.5%
[1]
  viability at 24 h, 30 µM: 88.5%

## Nc1nccc(-c2cn(Cc3ccc(Cl)s3)c3ccccc23)n1
[1]
  viability at 24 h, 30 µM: 115%

## O=C1NC(c2c[nH]c3ccc(Br)cc23)Nc2ccccc21 (stereo not given)
[1]
  viability at 24 h, 30 µM: 41.5%

## Nc1nccc(-c2cn(Cc3c4ccccc4cc4ccccc34)c3ccccc23)n1
[1]
  viability at 24 h, 30 µM: 96%

## Cc1c(C)c(C)c(S(=O)(=O)n2cc(-c3ccnc(N)n3)c3cc(Br)ccc32)c(C)c1C
[1]
  viability at 24 h, 30 µM: 107%

## Nc1nccc(-c2cn(S(=O)(=O)c3ccc(F)cc3F)c3ccccc23)n1
[1]
  viability at 24 h, 30 µM: 99.1%

## CCOc1ccccc1C(=O)n1cc(-c2ccnc(N)n2)c2ccccc21
[1]
  viability at 24 h, 30 µM: 46.6%

## N#Cc1ccc(S(=O)(=O)n2cc(-c3ccnc(N)n3)c3cc(Br)ccc32)cc1
[1]
  viability at 24 h, 30 µM: 106%

## CC(C)(C)c1ccc(S(=O)(=O)n2cc(-c3ccnc(N)n3)c3cc(Br)ccc32)cc1
[1]
  viability at 24 h, 30 µM: 109%
